Like-named read-outs stand apart in the source and are kept apart here.
Columns and labels:
Hyperlipidemic Hamster = assay: In Vivo Assay of Hypolipidemic Agents Using the Hyperlipidemic Hamster; conditions: for change in vivo at 50 mg/kg / change in vivo at 10 mg/kg / change in vivo at 25 mg/kg: Mesocricetus auratus, po, 168 h; for change in vivo at 10 mg/kg: 10 mg/kg once daily oral; for change in vivo at 25 mg/kg: 25 mg/kg once daily oral
Procedure, shortened: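 Hamsters, six per group, were fed chow with 0.5% cholesterol for seven days and given compound once daily by oral gavage in corn oil; controls received corn oil alone. Plasma (EDTA) and liver lipids were measured at sacrifice. Values are percent change versus control, so negative means lowering.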

ACAT = target: T1, ACAT (Rattus norvegicus, UniProt Q7TQM4); assay: ACAT Assay (in vitro); assay type: biochemical; conditions: for inhibition at 10 µM: Conc. 10 µM, negative = apparent stimulation, read-out: ACAT (in vitro) % Inhib.
T1 construct: Rat liver microsomes are used as the source of ACAT; from tissue; host or cells: rat liver microsomes
T1 sequence (Q7TQM4 1-524): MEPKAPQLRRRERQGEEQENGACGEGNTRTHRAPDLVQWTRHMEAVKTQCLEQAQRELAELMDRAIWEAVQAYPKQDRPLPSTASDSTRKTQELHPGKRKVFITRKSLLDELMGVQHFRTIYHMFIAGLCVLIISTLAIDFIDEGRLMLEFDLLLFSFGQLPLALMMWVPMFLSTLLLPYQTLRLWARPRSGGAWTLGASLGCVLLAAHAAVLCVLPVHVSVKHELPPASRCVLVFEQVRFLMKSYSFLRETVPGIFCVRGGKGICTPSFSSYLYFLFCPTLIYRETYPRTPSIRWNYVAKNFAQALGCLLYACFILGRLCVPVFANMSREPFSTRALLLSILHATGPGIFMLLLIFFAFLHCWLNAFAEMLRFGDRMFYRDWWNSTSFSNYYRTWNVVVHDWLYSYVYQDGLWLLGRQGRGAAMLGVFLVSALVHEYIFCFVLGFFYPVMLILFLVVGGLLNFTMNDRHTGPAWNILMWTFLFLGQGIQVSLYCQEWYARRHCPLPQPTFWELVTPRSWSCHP

[1] = 50 mg/kg once daily oral, 7 days, percent change versus control, negative = lowering, read-out: % Reduction (in vivo) Cholest. Esters
[2] = 50 mg/kg once daily oral, 7 days, percent change versus control, negative = lowering, read-out: % Reduction (in vivo) Serum Cholest.
[3] = rat liver microsomes, read-out: ACAT (in vitro) IC50
[4] = 50 mg/kg once daily oral, 7 days, percent change versus control, negative = lowering
[5] = 7 days, percent change versus control, negative = lowering, read-out: % Reduction (in vivo) Cholest. Esters
[6] = 7 days, percent change versus control, negative = lowering, read-out: % Reduction (in vivo) Serum Cholest.

Row | inhibition at 10 µM (ACAT) [%] | SMILES | change in vivo at 50 mg/kg (Hyperlipidemic Hamster; [1]) [%] | change in vivo at 50 mg/kg (Hyperlipidemic Hamster; [2]) [%] | other results
1 | 31 | COc1ccc(C2N(c3ccc(OC)cc3)C(=O)C2(c2ccccc2)c2ccccc2)cc1 (stereo not drawn) [Example 7AC] | 0 | 0 | –
2 | -36 | CC[C@]1(c2ccccc2)C(=O)N(c2ccc(OC)cc2)[C@H]1c1ccccc1 (relative stereo) [Example 1AA] | – | – | –
3 | 42 | COc1ccc(N2C(=O)[C@@H](CCCc3ccccc3)[C@H]2c2ccc(C=O)cc2)cc1 (relative stereo) [Example 16] | -29 | -25 | –
4 | 42 | CC[C@@]1(CCCc2ccccc2)C(=O)N(c2c(OC)cc(OC)cc2OC)[C@H]1c1ccccc1 (relative stereo) [Example 3D] | 0 | 0 | IC50 (ACAT; [3]): 12 µM
5 | -55 | COc1ccc([C@@H]2[C@H](CCCc3ccccc3)C(=O)N2c2ccc(O)cc2)cc1 (relative stereo) [Example 15B] | -18 | 0 | –
6 | 89 | CCCCCCCCCC[C@@H]1C(=O)N(c2ccc(OC)cc2)[C@@H]1c1ccc(OC)cc1 (relative stereo) [Example 1CL] | -18 | 0 | –
7 | -12 | CC[C@@H]1C(=O)N(c2ccc(OC)cc2)[C@@H]1c1ccc(N)cc1 (relative stereo) [Example 8] | – | – | –
8 | -24 | CC[C@]1(CCCc2ccccc2)C(=O)N(c2ccc(OC)cc2)[C@H]1c1ccccc1 (relative stereo) [Example 3E] | 0 | 0 | –
9 | -43 | CC[C@@H]1C(=O)N(c2ccc(OC)cc2)[C@@H]1c1ccc(OC)cc1 (relative stereo) [Example 1AL] | 0 | 0 | –
10 | 55 | COc1ccc(N2C(=O)[C@H](CCCc3ccccc3)[C@@H]2c2cccc(OC(F)(F)F)c2)cc1 (relative stereo) [Example 1BK] | 0 | 0 | –
11 | -5 | COc1ccc(N2C(=O)[C@@H](CCCc3ccccc3)[C@H]2c2ccc(N)cc2)cc1 (relative stereo) [Example 8B] | -35 | -9 | –
12 | 53 | COc1ccc([C@@H]2N(c3ccc(OC)cc3)C(=O)[C@]2(Cc2ccccc2)c2ccccc2)cc1 (relative stereo) [Example 7AF] | -15 | 23 | –
13 | -17 | CC[C@@H]1C(=O)N(c2ccc(OC)cc2)[C@H]1c1ccc(N)cc1 (relative stereo) [Example 8A] | 0 | 0 | –
14 | 74 | CC[C@@]1(CCCc2ccccc2)C(=O)N(c2ccc(OC)cc2)[C@H]1C=Cc1ccccc1 (relative stereo) [Example 3G] | 0 | 9 | IC50 (ACAT; [3]): 5 µM
15 | 81 | CC[C@@]1(CCCc2ccccc2)C(=O)N(c2c(OC)cc(OC)cc2OC)[C@H]1C=Cc1ccccc1 (relative stereo) [Example 1I] | – | – | IC50 (ACAT; [3]): 4.5 µM
16 | -28 | CC[C@@]1(CCCc2ccccc2)C(=O)N(c2ccc(OC)cc2)[C@H]1c1ccc(OC)cc1 (relative stereo) [Example 3O] | 0 | 0 | –
17 | -18 | CCCCCCCCCC[C@@]1(CCCc2ccccc2)C(=O)N(c2ccc(OC)cc2)[C@@H]1c1ccccc1 (relative stereo) [Example 3C] | – | – | –
18 | 64 | COc1ccc(N2C(=O)[C@H](c3ccccc3)[C@H]2c2ccccc2)cc1 (relative stereo) [Example 1V] | – | – | –
19 | 21 | COc1ccc(N2C(=O)[C@H](CCCc3ccccc3)[C@H]2c2cccc(OC)c2)cc1 (relative stereo) [Example 5C] | -24 | -17 | –
20 | 4 | COc1ccc(N2C(=O)[C@@H](C)[C@H]2c2ccccc2)cc1 (relative stereo) [Example 1AH] | – | – | –

Row | inhibition at 10 µM (ACAT) [%] | SMILES | change in vivo at 50 mg/kg (Hyperlipidemic Hamster; [1]) [%] | change in vivo at 50 mg/kg (Hyperlipidemic Hamster; [2]) [%] | other results
21 | 9 | COc1ccc(N2C(=O)[C@H](C(C)C)[C@@H]2c2ccccc2)cc1 (relative stereo) [Example 1W] | – | – | –
22 | 3 | COc1ccc(N2C(=O)[C@@H](CCc3ccccc3)[C@@H]2c2ccccc2)cc1 (relative stereo) [Example 1E] | – | – | –
23 | 17 | CC[C@H]1C(=O)N(c2ccc(OC)cc2)[C@H]1c1ccccc1 (relative stereo) [Example 1AB] | – | – | –
24 | -9 | CCCCCCCCCC[C@@]1(CC)C(=O)N(c2ccc(OC)cc2)[C@@H]1c1ccccc1 (stereo in doubt) [Example 3T] | – | – | –
25 | -70 | COc1ccc(N2C(=O)[C@@H](C(C)C)[C@@H]2c2ccccc2)cc1 (relative stereo) [Example 5A] | – | – | –
26 | -7 | CC[C@H]1C(=O)N(c2c(OC)cc(OC)cc2OC)[C@H]1c1ccccc1 (relative stereo) [Example 1AE] | – | – | –
27 | -33 | CC[C@H]1C(=O)N(c2ccc(OC)cc2)[C@H]1c1ccc([N+](=O)[O-])cc1 (relative stereo) [Example 1AK] | – | – | –
28 | -5 | CC[C@H]1C(=O)N(c2ccc(OC)cc2)[C@@H]1c1ccccc1 (relative stereo) [Example 1AD] | – | – | –
29 | 27 | COc1ccc(N2C(=O)[C@@H](C)[C@@H]2c2ccccc2)cc1 (relative stereo) [Example 1AI] | – | – | –
30 | 16 | COc1ccc(N2C(=O)[C@H](c3ccccc3)[C@@H]2c2ccccc2)cc1 (relative stereo) [Example 4] | – | – | –
31 | 86 | CC[C@]1(CCCc2ccccc2)C(=O)N(c2c(OC)cc(OC)cc2OC)[C@H]1C=Cc1ccccc1 (relative stereo) [Example 1J] | – | – | IC50 (ACAT; [3]): 3 µM
32 | 0 | CC[C@H]1C(=O)N(c2ccc(OC)cc2)[C@H]1C=Cc1ccccc1 (relative stereo) [Example 1AF] | – | – | –
33 | – | COc1ccc(N2C(=O)[C@H](CCCc3ccccc3)[C@@H]2CN2CCOCC2)cc1 (relative stereo) [Example 19E] | -30 | -19 | –
34 | – | COc1ccc([C@@H]2[C@@H](CCCc3ccccc3)C(=O)N2c2ccc(Cl)cc2)cc1 (relative stereo) [Example 5G] | -93 | -44 | –
35 | – | COc1ccc([C@@H]2[C@@H](CCCc3ccccc3)C(=O)N2c2ccc(OC)cc2)cc1 (relative stereo) [Example 5] | – | – | % Reduction (in vivo) Cholest. Esters (Hyperlipidemic Hamster; [4]): -77.5%; % Reduction (in vivo) Serum Cholest. (Hyperlipidemic Hamster; [4]): -29%; change in vivo at 10 mg/kg (Hyperlipidemic Hamster; [5]): -60%; change in vivo at 10 mg/kg (Hyperlipidemic Hamster; [6]): -21%; change in vivo at 25 mg/kg (Hyperlipidemic Hamster; [5]): -72%; change in vivo at 25 mg/kg (Hyperlipidemic Hamster; [6]): -20%
36 | – | CCOC(=O)COc1ccc([C@H]2[C@@H](CCCc3ccccc3)C(=O)N2c2ccc(OC)cc2)cc1 (relative stereo) [Example 35A] | -84 | -34 | –
37 | – | COc1ccc(N2C(=O)[C@H](CCCc3ccccc3)[C@@H]2c2cc3ccccc3o2)cc1 (relative stereo) [Example 1BZ] | 0 | -9 | –
38 | 50 | COc1ccc(N2C(=O)[C@](Cc3ccccc3)(c3ccccc3)[C@@H]2c2ccccc2)cc1 (relative stereo) [Example 1Y] | – | – | –
39 | – | COc1ccc([C@@H]2[C@@H](CCCc3ccccc3)C(=O)N2c2ccc(C)cc2)cc1 (relative stereo) [Example 5J] | -90 | -38 | –
40 | – | COc1ccc(N2C(=O)[C@H](CCCc3ccccc3)[C@@H]2c2nccn2COCC[Si](C)(C)C)cc1 (relative stereo) [Example 1AW] | – | – | change in vivo at 50 mg/kg (Hyperlipidemic Hamster; read-out: % Reduction (in vivo) Cholest. Esters): -16%; change in vivo at 50 mg/kg (Hyperlipidemic Hamster; read-out: % Reduction (in vivo) Serum Cholest.): -14%

Row | SMILES | inhibition at 10 µM (ACAT) [%] | change in vivo at 50 mg/kg (Hyperlipidemic Hamster; [1]) [%] | change in vivo at 50 mg/kg (Hyperlipidemic Hamster; [2]) [%] | other results
41 | COc1ccc(N2C(=O)[C@H](CCCc3ccccc3)[C@H]2c2ccc(CO[Si](C)(C)C(C)(C)C)cc2)cc1 (relative stereo) [Example 1AS] | 83 | -19 | 0 | IC50 (ACAT): 1 µM
